Assay results published in patent US20230270753A1, “COMBINATIONS OF GABAA ALPHA 5 AGONISTS AND SV2A INHIBITORS AND METHODS OF USING IN THE TREATMENT OF COGNITIVE IMPAIRMENT” (AGENEBIO, INC., priority 2020, published 2023).
Where two headings read alike, the source gives them in different places.

Columns and labels:
Assay type in all cases: in vivo, rat
[1] = system: aged-impaired rats; assay: Water maze, acute and chronic Compound 1 (Example 7); conditions: Compound 1 10 mg/kg IP
Excerpt: Rats were trained and tested in a novel water maze environment to assess the effect of the treatments. The water maze used here was housed in a different room and was surrounded by curtains with a novel set of patterns relative to the maze used for initial assessment of cognitive status. The training and testing protocol used was identical to the spatial learning-activated protocol described in Haberman et al., (2008, Proceedings of the National Academy of Sciences USA, 105, 10601-10606). The task required rats to swim to a […] escape platform at a fixed location in the presence of spatial cues for 8 training trials with an inter-trial interval of 8 min. An hour after the last training trial, rats were given a probe test in the absence of the escape platform (free swim) to assess the memory of the platform location as measured by time spent searching at the target location.
To assess the acute and chronic effects of Compound 1 treatment, rats received 15-16 days of drug injections with assessment on the water maze on the first day (acute effect) and last day (chronic effect) of treatment. Different surrounding spatial cues and escape location in the water maze were used for the initial and subsequent assessments. Compound 1 was given at 10 mg/kg using intraperitoneal injection (IP) at a volume of 1 ml/kg. […]

[2] = system: aged-impaired rats; assay: Radial arm maze, 5-hr delay, acute Compound 1 via PO (Example 7); conditions: Compound 1 10 mg/kg PO 30-40 min before information trial
Excerpt: All rats were screened in a standardized assessment of spatial cognition before the commencement of drug studies. The background assessment used a well-established Morris water maze protocol as described in detail elsewhere (Gallagher et al, 1993). Briefly, the rats were trained for 8 days (three trials per day) to locate a camouflaged escape platform that remained at the same location throughout training in a water maze. Every sixth trial consisted of a probe trial (free swim with no escape platform) that served to assess the development of a spatially localized search for the escape platform. During these probe trials, a learning index was generated from the proximity of the rat to the escape platform and was used to define impairment in the aged rats. The learning index is the sum of weighted proximity scores obtained during probe trials, with low scores reflecting a search near the escape platform and high scores reflecting searches farther away from the platform (Gallagher et al, 1993). Cue training (visible escape platform) occurred on the last day of training to test for sensorimotor and motivational factors independent of spatial learning. Aged rats with impaired spatial memory performance (i.e., those with learning index scores outside the young ‘normative’ range) but successful cued training performance were used for the studies as described below. […]

[3] = system: aged-impaired rats

## COCc1nnc2n1Cc1c(C#Cc3cnc(OC)s3)ncn1-c1ccc(Cl)cc1-2 [Compound 1]
[1]; acute (first day of treatment)
  time spent in the target quadrant of the Morris Water Maze: spent more time in the target quadrant
[1]; chronic (last day of 15-16 days of injections)
  time spent in the target quadrant of the Morris Water Maze: spent more time in the target quadrant
[2]
  number of errors in the radial arm maze vs vehicle: fewer errors
[3]; Compound 1 2.5 mg/kg IP alone
  efficacy of Compound 1 on its own in the radial arm maze: subtherapeutic
[3]; Compound 1 5 mg/kg IP alone
  efficacy of Compound 1 on its own in the radial arm maze: subtherapeutic
